What was measured:
[1] = tested on: blood vessels (blood pressure); experiment: vasodilation: direct blood pressure lowering after a single i.v. administration in awake spontaneously hypertonic rats (SHR); format: in vivo, rat (spontaneously hypertonic; details: for ED (30 mmHg): Rattus norvegicus, iv, dosage for lowering of blood pressure by 30 mm.Hg, awake SHR, single i.v. administration, purity >99.4%
Procedure: (measured as direct blood pressure lowering after a single administration)
In awake, spontaneously hypertonic rats (SHR), catheters were implanted in the arteria femoralis and the vena jugularis. Via the veins, there were injected appropriate dosages of the enantiomers (R-carvedilol and S-carvedilol in dosages of 0.03; 0.1; 0.3; 1.0 and 3 mg/kg. i.v.) and the arterial blood pressure lowering was determined via the arterial pressure catheter (as an expression of the vasodilation). As a measure of the antihypertensive effect, there were calculated the dosages for lowering of the blood pressure by 30 mm.Hg.

[2] = tested on: isoprenaline tachycardia; experiment: β-blocking action: inhibition of isoprenaline tachycardia in awake rabbits; format: in vivo, rabbit; details: for ED50: Oryctolagus cuniculus, iv, 50% inhibiting dosage, isoprenaline tachycardia, purity >99.4%, read-out: β-blockade ED50%; for β-blocking properties: in words

Compound | ED (30 mmHg) [1] [mg/kg] | vasodilation: difference factor of the dosages of R- and S-carvedilol ([1]; ratio of ED-30mmHg R-carvedilol to S-carvedilol, i.v., SHR) | ED50 ([2]; awake rabbits, i.v.) [mg/kg] | β-blockade: difference factor of the dosages of R- and S-carvedilol ([2]; ratio of ED50% R-carvedilol to S-carvedilol, i.v., awake rabbits) | dosage for blood pressure lowering of 30 mm.Hg in comparison to β-blockade (times higher) ([1]; S-carvedilol, ED-30mmHg vs β-blockade ED50%) | β-blocking properties [2] | β-blocking properties ([2]; listed as Example 8)
COc1ccccc1OCCNC[C@@H](O)COc1cccc2[nH]c3ccccc3c12 [R-carvedilol, R-(+)-(1-Carbazol-4-yloxy)-3-[2-(2-methoxyphenoxy)]ethylaminopropan-2-ol] | 2.96 | 11 | 3.98 | 160 | – | – | –
COc1ccccc1OCCNC[C@H](O)COc1cccc2[nH]c3ccccc3c12 [S-carvedilol, S-(-)-(1-Carbazol-4-yloxy)-3-[2-(2-methoxyphenoxy)]ethylaminopropan-2-ol] | 0.27 | – | 0.025 | – | about 10 times | practically only S-carvedilol can be regarded as being a β-blocker | displays β-blocking properties
